# Assay results: patent US20120035203A1, “BUTACLAMOL FOR THE TREATMENT OF AMYOTROPHIC LATERAL SCLEROSIS” (CAMBRIA PHARMACEUTICALS, INC., priority 2009, published 2012)
# “Also recorded” adds a separate entry of the source. Peptide text beside a SMILES is read from it. * marks the point of attachment. Cbz = O=C(OCc1ccccc1)*
# How the values were obtained:
# [1] = tested on: PC12 cells expressing G93A SOD1; assay: sensitivity of PC12 cells to proteasome inhibitor (cell viability, calcein-AM); assay type: cell-based
# Method: FIG. 1. Proteasome inhibition is selectively toxic to PC12 cells expressing mutant G93A SOD1. Cell survival was determined using the viability stain calcein-AM.
# [2] = tested on: PC12 cells that express mutant G93A SOD1 as a YFP fusion protein; assay: high throughput cytotoxicity protection assay; conditions: for Activity in Protection Assay: neuroleptic agent screening; for EC50: Rattus norvegicus, PC-12, read-out: Protection ED50; for Protection Efficacy Conc.: concentration at which the % viability is given; for protection of cell viability from MG132: 100 nM MG132 co-treatment
# Method: This idea was tested by examining the sensitivity of PC12 cells to SOD1 aggregates in the presence and absence of proteasome inhibitor MG132. PC12 cells expressing no SOD1, wild type SOD1, G85R SOD1 or G93A SOD1 were grown with or without MG132 (FIG. 1). […] The ability of protein aggregates to induce cell death was examined by treating G93A SOD1-expressing cells with MG132 for 24 h, removing the MG132 by washing and assaying cell viability after another 24 h.
# PC12 cells expressing G93A SOD1 were treated with 100 nM MG132 with or without co-treatment with geldanamycin or radicicol.
# [3] = tested on: healthy volunteers and chronic schizophrenic patients; conditions: cited from earlier work
# cellular toxicity = assay type: cell-based
# Source text: Butaclamol is a diasteriomer and the two different isomeric forms can be physically separated.
# [4] = tested on: PC12 cells expressing G85R SOD1; assay: mutant SOD1 direct protein aggregation assay; assay type: cell-based
# Method: 4) Compounds could act directly on SOD1 in a manner that prevents mutant SOD1 aggregation. These possibilities were tested using an assay that directly measures protein aggregation. In addition, unlike the high throughput cytotoxicity protection assay, the protein aggregation assay is based on G85R SOD1; this broadens the scope of the screening strategy, and should eliminate compounds with highly specific activity (i.e., G93A SOD1 limited) against protein aggregation.
# The identification of a positive control is a crucial step in assay development. Thus, PC12 cells expressing G85R or G93A mutant SOD1 were treated with MG132 to induce protein aggregation, and then co-treated with candidate chemical suppressors of protein aggregation.
# To allow this assay to be used in a high-throughput manner, a Cellomics Arrayscan® high content microscopy system was used for screening and quantification. […] Because the most robust high content assays measure events on a per cell basis, it was necessary to select a fluorescent stain that marks whole cells to be used with a compatible stain that marks intracellular structures.
# G93A mice = assay: climbing assay for extrapyramidal effects; assay type: in vivo, mouse; conditions: 0.01, 0.1, 1 mg/kg
# Source text: A climbing assay was used to test for extrapyramidal effects.
# [5] = tested on: G93A SOD1 transgenic mice; assay: transgenic G93A SOD1 ALS mouse model (open field, survival, neuropathology); assay type: in vivo; conditions: for Average life span: untreated 125.1±3.8
# Source text: Subjects. […] The development of transgenic mice expressing G93A human SOD1 as a mouse model for the human disease has been regarded as a major breakthrough for development of ALS therapeutics. G93A SOD1 transgenic mice develop progressive hind limb weakness, muscle wasting, and neuropathological sequelae similar to those observed in patients with both sporadic and familial ALS. […] In addition, motor performance deteriorates as the disease progresses. The G93A SOD1 mouse model has played a prominent role in studying disease progression and especially for testing potential therapeutic agents, the latter in part because these animals have a shortened life span of approximately 126 days. In the present study, G93A SOD1 mice and littermate controls are bred from existing colonies at the Bedford VA Medical Hospital. The male G93A SOD1 mice are mated with B6SJL females and the offspring are genotyped by PCR using tail DNA. The number of SOD1 transgenes are assessed by PCR to ensure that transgene copy number remains constant. Mice are housed in micro-isolator cages in complete barrier facilities, and all studies are performed in these facilities. A 12 hour light-dark cycle is maintained and animals are given free access to food and water. Control and transgenic mice of the same age (±2 days) and from the same ‘f generation will be selected from multiple litters to form experimental cohorts (n=20 per group). Standardized criteria for age and parentage are used for placing individual mice into experimental groups/cohorts. Wild type mice are used for initial toxicity, tolerability, and pharmacokinetic studies and ALS mice are used for one-month tolerability studies.
# Tolerability, Dosing, and Pharmacokinetics. The tolerable dose range and LD50 for butaclamol was determined in wild type mice by increasing the dose b.i.d. one-fold each injection. The route of administration was via i.p. administration, which was previously reported to produce robust effects in behavioral pharmacology studies, and starting dose range was guided by these prior studies (Lippmann et al., Life Sciences 16, 213, (1975); Humber et al., Mol. Pharmacol. 11, 833, (1975); Voith and Herr, Psychopharmacologia 42, 11, (1975)). One goal was to select a range of doses for the efficacy study starting ten fold below the maximum tolerated dose. Initial pharmacokinetic (pK) studies were conducted by giving animals a single dose, sacrificing them after 30 min, 1 h, 2 h, 4 h, 6 h, and 12 h, and dissecting brains and spinal cords and determining drug concentration in the target tissue. Drug steady-state level was determined in animals that had been dosed for 1 week prior to sacrifice. The range of dosing levels of 0.01, 0.1, and 1 mg/kg once a day were administered throughout the lives of the G93A mice.
# Behavioral pharmacology. Behavioral testing for the transgenic G93A SOD1 mice were performed during the light phase of the diurnal cycle since these mice are sufficiently active during that time. Measurements were made for 30 minutes after 10 minutes of acclimation to the box (Opto-Varimex Unit, Columbus Instruments, Columbus, Ohio, USA). Counts of horizontal and vertical motion activity were monitored and quantitative analysis of locomotor activity (resting and ambulatory times), were assessed. The open field box was cleaned before testing each mouse. Each 30 minutes of testing was analyzed as three periods of 10 minute intervals to study the influence of novelty and measured behavior. Mice were coded and investigators were blinded to the genotype and analysis. Testing started on week 4 and performed every other week until the mice could no longer participate.
# Efficacy studies. Efficacy was measured using endpoints that clearly indicate neuroprotective function. These include amelioration of degenerative changes in the spinal cord, improved motor function, and prolonged survival. […]
# [6] = tested on: PC12 cells expressing wild-type SOD1; assay: MG132-induced SOD1 protein aggregation; assay type: cell-based; conditions: cells treated with MG132
# Source text: (§1) In PC12 cells that express wild-type SOD1, SOD1 was diffusely localized throughout the cell (Matsumoto et al. J. Cell. Biol 2005, 171(1), 75-85). […] Therefore, these effects are likely to be due to MG132-induced proteasome inhibition, and not due to an off-target effect of MG132.
# [7] = tested on: PC12 cells expressing no SOD1, wild type SOD1 and G85R SOD1; assay: sensitivity of PC12 cells to proteasome inhibitor (cell viability, calcein-AM); assay type: cell-based; conditions: Rattus norvegicus, PC-12
# [8] = tested on: PC12 cells expressing G93A mutant SOD1; assay: MG132-induced SOD1 protein aggregation; assay type: cell-based
# Method: as §1
# The identification of a positive control is a crucial step in assay development. Thus, PC12 cells expressing G85R or G93A mutant SOD1 were treated with MG132 to induce protein aggregation, and then co-treated with candidate chemical suppressors of protein aggregation. […] Both compounds induce heat shock transcription factor HSF-1, which in turn induces the heat shock response (FIG. 4). Treatment with radicicol reduced the proportion of cells with aggregates from 75% to 25%, a sufficient difference to allow visual scoring for compounds with efficacy equal to or greater than radicicol.
structure (smiles),measurement,setting,value
CC(C)C[C@H](NC(=O)[C@H](Cc1ccccc1)NC(=O)c1cnccn1)B(O)O [bortezomib],sensitivity of PC12 cells to proteasome inhibition,[1]; compared with MG132,Qualitatively similar results
CN1CCN(C2=Nc3cc(Cl)ccc3Nc3ccccc32)CC1 [Clozapine],Activity in Protection Assay,[2],Inactive
O=C(CCCN1CCC(O)(c2ccc(Cl)cc2)CC1)c1ccc(F)cc1 [Haloperidol],Activity in Protection Assay,[2],Inactive
CC(C)(C)[C@]1(O)CCN2C[C@H]3c4ccccc4CCc4cccc(c43)[C@@H]2C1 [Butaclamol],limiting effects in Phase I,"[3]; healthy volunteers, single and repeated doses up to 32 mg/day",sedation and extrapyramidal effects
same,dose producing extrapyramidal effects in patients,"[3]; human, in vivo",≥ 10 mg/day
same,neuroleptic activity in chronic schizophrenic patients,"[3]; long-term, 50 mg/day",active neuroleptic agent
same,IC50,cellular toxicity,< 25000 nM
same,activity in the protection assay,[2],showed activity
same,EC50,[2],~840 nM
same,Protection Efficacy Conc.,[2],15 µM
same,Activity in Protection Assay,[2],Active
same,Protection Efficacy % Viability,[2]; rat,80%
same,Aggregation,[4],Inactive
same,activity in the aggregation assay,[4],inactive
same,extrapyramidal effects,G93A mice,No significant extrapyramidal effects
same,gross lumbar spinal cord (atrophy),"[5]; 0.1 mg/kg, 120 days, WT 3.18±0.24×10^6, untreated 2.25±0.49×10^6, P<0.01",2.97±0.31×10^6 μm^3
same,ventral horn of the lumbar spinal cord (atrophy),"[5]; 0.1 mg/kg, 120 days, WT 7.29±0.41×10^5, untreated 5.28±0.63×10^5, P<0.05",6.55±0.37×10^5 μm
same,ventral horn neuronal count,"[5]; 0.1 mg/kg, 120 days, WT 98.1±12.9, untreated 22.4±15.8, P<0.01",57.3±18.2
same,"reactive astrogliosis (GFAP expression, lumbar spinal cord)",[5]; butaclamol treatment,ameliorated; also recorded: markedly attenuates reactive astrogliosis
same,open field motor activity,"[5]; high dose 1 mg/kg, throughout treatment, vs wild type or untreated G93A",significantly reduced motor activity outcome measures
same,Average life span,"[5]; high dose (1 mg/kg once a day, i.p.)",123.7 ± 6.2 days
same,"open field behavior (distance traveled, resting time, ambulatory count, ambulatory time)","[5]; low dose 0.01 mg/kg, 6 week to 12-13 week",no significant effect
same,Average life span,"[5]; low dose (0.01 mg/kg once a day, i.p.)",129.3 ± 4.1 days
same,open field behavior,"[5]; medium dose 0.1 mg/kg, 6 weeks to 12-13 weeks, 0.1 mg/kg",not significantly different from wild type mice
same,Average life span,"[5]; medium dose (0.1 mg/kg once a day, i.p.)",141.0 ± 5.3 days
same,extended survival as compared with untreated G93A mice,[5]; medium dose (0.1 mg/kg),12.7%
CC(C)C[C@@H](C=O)NC(=O)[C@H](CC(C)C)NC(=O)[C@H](CC(C)C)NC(=O)OCc1ccccc1 [MG132] (Cbz-Leu-Leu-Leu-aldehyde),toxicity at 24 hr,"[1]; 100 nM, 24 hr, any of the cell lines",no toxicity
same,toxicity after 48 hours,"[1]; 100 nM, 48 hours",selectively toxic to the G93A SOD1 cell line
same,fold more sensitive than the other PC12 lines,"[1]; G93A SOD1 cells vs no SOD1, wild type, G85R",approximately 5 fold
same,IC50,"[1]; Rattus norvegicus, PC-12, read-out: IC50 (cell viability)",~75 nM
same,protein aggregation in wild-type SOD1 cells,[6],no aggregation was observed
same,IC50,[7],~400 nM
same,cells containing protein aggregates,[4]; G85R SOD1 cells treated with MG132,up to 75%
same,cells with protein aggregates,[8]; G93A SOD1 cells following treatment with MG132,~75%
CN(C)CCCN1c2ccccc2Sc2ccc(Cl)cc21 [Chlorpromazine],Activity in Protection Assay,[2],Inactive
O=c1[nH]c2ccccc2n1C1CCN(CCCC(c2ccc(F)cc2)c2ccc(F)cc2)CC1 [Pimozide],Activity in Protection Assay,[2],Inactive
CN(C)CC/C=C1/c2ccccc2Sc2ccc(Cl)cc21 [Chlorprothixene],Activity in Protection Assay,[2],Inactive
C[C@@H]1C[C@H]2O[C@@H]2/C=C\C=C\C(=O)Cc2c(Cl)c(O)cc(O)c2C(=O)O1 [Radicicol],IC50,cellular toxicity,~30000 nM
same,protection of cell viability from MG132,[2],protects
same,protection of cell viability from MG132,[2]; listed as radicicol,increased cell viability in a dose-dependent manner
same,EC50,[2],~530 nM
same,Protection Efficacy % Viability,[2]; at the concentration given,80%
same,Protection Efficacy Conc.,[2],0.7 µM
same,Aggregation,[4],Moderate
same,proportion of cells with aggregates,"[4]; G85R or G93A mutant SOD1 cells, co-treated with MG132, 75% without radicicol",25%
same,suppression of MG132-induced mutant SOD1 aggregation,"[4]; G93A SOD1 or G85R SOD1 cells, MG132 co-treatment",decreases mutant SOD1 aggregation
same,formation of protein aggregates,[8]; 100 nM MG132 co-treatment,reduced formation of protein aggregates
OCCN1CCN(CCCN2c3ccccc3Sc3ccc(Cl)cc32)CC1 [Perphenazine],Activity in Protection Assay,[2],Inactive
CN1CCN(C2=Nc3ccccc3Oc3ccc(Cl)cc32)CC1 [Loxapine],Activity in Protection Assay,[2],Inactive
CN1CCN(CCCN2c3ccccc3Sc3ccc(C(F)(F)F)cc32)CC1 [Trifluoperazine],Activity in Protection Assay,[2],Inactive
Cc1nc2n(c(=O)c1CCN1CCC(c3noc4cc(F)ccc34)CC1)CCCC2 [Risperidone],Activity in Protection Assay,[2],Inactive
